Results reported in patent US11591341B2 (ALIGOS THERAPEUTICS, INC., priority 2019, dated 2023).

Tested on: HBV
Test: HBV-DNA Antiviral Assay Using HepG2.117 Cells (intracellular HBV DNA by qPCR)
Format: cell-based, hepatitis B virus (genotype D)
Conditions: Hepatitis B virus, HepG2.117
Procedure: The following assay procedure describes the HBV antiviral assay, using HepG2.117 cells, which carry a stably integrated genotype D HBV genome under the control of a Tet-off promoter, and intracellular HBV DNA quantification as endpoint. Cell viability is assessed in parallel by measuring the intracellular ATP content using ATPlite (Perkin Elmer).
On day 0, HepG2.117 cells (which are maintained in routine cell culture with doxycycline present in the medium at a final concentration of 1 μg/mL) were seeded in 96-well plates (white with clear bottom) at a density of 2.0×10^4 cells/well (0.1 mL/well) in medium without doxycycline to induce pgRNA transcription and subsequent formation of HBV particles. The cells were incubated at 37° C. and 5% CO2.
On day 1, medium was removed from each well, the test articles were diluted in culture medium without doxcycyline and 100 μL was added to cell culture wells (9 concentrations, 4-fold dilution). For each plate, 6 untreated (merely DMSO) wells were included. The final concentration of DMSO in the culture medium was 2%. Each plate was prepared in duplicate (one for HBV DNA extraction, one for ATPlite measurement). The cells were incubated at 37° C. and 5% CO2 for 3 days.
On day 4, cell viability was assessed using ATPlite and cell lysates were prepared for HBV DNA extraction and subsequent quantification by qPCR.
Medium was removed from each well and 100 μL of 0.33% NP-40 in H2O was added to each well. Plates were sealed, incubated at 4° C. for 5 mins, vortexed extensively and centrifuged briefly. Next, 35 μL of lysate was added to 65 μL QuickExtract DNA Extraction Solution (Epicentre) in a PCR plate for each well. PCR plate was incubated at 65° C. for 6 mins, 98° C. for 2 mins and finally cooled to 4° C. HBV DNA was then quantified by qPCR with HBV-specific primers and probes as specified in Table 3 using the Bio-Rad SSOAdvanced Universal Probes Supermix on a CFX96 machine (Bio-Rad). The PCR cycle program consisted of 95° C. for 3 mins, followed by 40 cycles at 95° C. for 10 sec and 60° C. for 30 sec.
A DNA standard was prepared by dilution of an IDT gBlock corresponding to the amplicon with concentrations ranging from 10^2 to 10^8 copies/input (i.e. per 4 μL) and used to generate a standard curve by plotting Cq values vs. HBV DNA standard concentration. The quantity of HBV DNA in each sample was determined by interpolating from the standard curve.
Cell viability was calculated as follows: % Cell viability=(luminescence value of test sample)/(average luminescence value of 2% DMSO control)×100%. HBV DNA inhibition was calculated as follows: 100−(HBV DNA copy number of test sample)/(average HBV DNA copy number of 2% DMSO control)×100%. No normalization to entecavir was required due to the excellent dynamic window of this assay. The CC50, EC50 and EC90 values were determined by dose-response curves fitted by GraphPad Prism using “log (agonist) vs. response—Variable slope”.

| SMILES | EC50 |
| --- | --- |
| CC(NC(=O)c1c2n(c(=O)n1-c1ccc(OC3CC3)cc1)CCN(C(=O)c1ccc(Br)c(Cl)c1)C2)c1ccccc1 (racemic) [Example 179, 7-(4-bromo-3-chloro-benzoyl)-2-[4-(cyclopropoxy)phenyl]-3-oxo-N-[rac-(1R)-1-phenylethyl]-6,8-dihydro-5H-imidazo[1,5-a]pyrazine-1-carboxamide] | 100 to 500 nM |
| C[C@@H](NC(=O)c1[nH]c(=O)n2c1CN(C(=O)c1ccc(Br)c(Cl)c1)CC2)c1ccccc1 (racemic) [Example 188, 7-(4-bromo-3-chloro-benzoyl)-3-oxo-N-[rac-(1R)-1-phenylethyl]-2,5,6,8-tetrahydroimidazo[1,5-a]pyrazine-1-carboxamide] | 500 to 5000 nM |
| COc1ccc(-n2c(C(=O)NCc3ccccc3)c3n(c2=O)CC(C)N(C(=O)c2ccc(Br)c(Cl)c2)C3)cc1 (racemic) [Example 198, rac-(6R)-N-benzyl-7-(4-bromo-3-chloro-benzoyl)-2-(4-methoxyphenyl)-6-methyl-3-oxo-6,8-dihydro-5H-imidazo[1,5-a]pyrazine-1-carboxamide] | 500 to 5000 nM |
| COc1ccc(-n2c(C(=O)NCc3ccccc3)c3n(c2=O)C[C@H](C)N(C(=O)c2ccc(Br)c(Cl)c2)C3)cc1 (racemic) [Example 199, rac-(6S)-N-benzyl-7-(4-bromo-3-chloro-benzoyl)-2-(4-methoxyphenyl)-6-methyl-3-oxo-6,8-dihydro-5H-imidazo[1,5-a]pyrazine-1-carboxamide] | 100 to 500 nM |
| COc1ccc(-n2c(C(=O)NC(C(N)=O)c3ccccc3)c3n(c2=O)CCN(C(=O)c2ccc(Br)c(Cl)c2)C3)cc1 (racemic) [Example 206, 7-(4-bromo-3-chloro-benzoyl)-2-(4-methoxyphenyl)-3-oxo-N-[rac-(1R)-2-amino-2-oxo-1-phenyl-ethyl]-6,8-dihydro-5H-imidazo[1,5-a]pyrazine-1-carboxamide] | > 5000 nM |
| COc1ccc(-n2c(C(=O)N[C@H](C(N)=O)c3ccccc3)c3n(c2=O)CCN(C(=O)c2ccc(Br)c(Cl)c2)C3)cc1 (racemic) [Example 207, 7-(4-bromo-3-chloro-benzoyl)-2-(4-methoxyphenyl)-3-oxo-N-[rac-(1S)-2-amino-2-oxo-1-phenyl-ethyl]-6,8-dihydro-5H-imidazo[1,5-a]pyrazine-1-carboxamide] | > 5000 nM |
| CC(C)Oc1ccc(-n2c(C(=O)NCc3ccccc3)c3n(c2=O)CCN([C@H](c2ccc(Br)c(Cl)c2)C(F)(F)F)C3)cc1 (racemic) [Example 240, N-benzyl-2-(4-isopropoxyphenyl)-3-oxo-7-[rac-(1R)-1-(4-bromo-3-chloro-phenyl)-2,2,2-trifluoro-ethyl]-6,8-dihydro-5H-imidazo[1,5-a]pyrazine-1-carboxamide] | > 5000 nM |
| CC(C)Oc1ccc(-n2c(C(=O)NCc3ccccc3)c3n(c2=O)CCN(C(c2ccc(Br)c(Cl)c2)C(F)(F)F)C3)cc1 (racemic) [Example 241, N-benzyl-2-(4-isopropoxyphenyl)-3-oxo-7-[rac-(1S)-1-(4-bromo-3-chloro-phenyl)-2,2,2-trifluoro-ethyl]-6,8-dihydro-5H-imidazo[1,5-a]pyrazine-1-carboxamide] | > 5000 nM |
| COC1CCC(n2c(C(=O)N[C@@H](C)c3ccccc3)c3n(c2=O)CCN(C(=O)c2ccc(Br)c(Cl)c2)C3)CC1 (mixture of isomers) [Example 247, 7-(4-bromo-3-chloro-benzoyl)-2-(4-methoxycyclohexyl)-3-oxo-N-[rac-(1S)-1-phenylethyl]-6,8-dihydro-5H-imidazo[1,5-a]pyrazine-1-carboxamide] | > 5000 nM |
| COC1CCC(n2c(C(=O)N[C@H](C)c3ccccc3)c3n(c2=O)CCN(C(=O)c2ccc(Br)c(Cl)c2)C3)CC1 (mixture of isomers) [Example 254, 7-(4-bromo-3-chloro-benzoyl)-2-(4-methoxycyclohexyl)-3-oxo-N-[rac-(1R)-1-phenylethyl]-6,8-dihydro-5H-imidazo[1,5-a]pyrazine-1-carboxamide] | > 5000 nM |
| COc1ccc(-n2c(C(=O)NCc3ccccc3)c3n(c2=O)C[C@H](C2CC2)N(C(=O)c2ccc(Br)c(Cl)c2)C3)cc1 (racemic) [Example 279, rac-(6S)-N-benzyl-7-(4-bromo-3-chloro-benzoyl)-6-cyclopropyl-2-(4-methoxyphenyl)-3-oxo-6,8-dihydro-5H-imidazo[1,5-a]pyrazine-1-carboxamide] | 100 to 500 nM |
| COc1ccc(-n2c(C(=O)NCc3ccccc3)c3n(c2=O)CC(C2CC2)N(C(=O)c2ccc(Br)c(Cl)c2)C3)cc1 (racemic) [Example 280, rac-(6R)-N-benzyl-7-(4-bromo-3-chloro-benzoyl)-6-cyclopropyl-2-(4-methoxyphenyl)-3-oxo-6,8-dihydro-5H-imidazo[1,5-a]pyrazine-1-carboxamide] | 100 to 500 nM |
| C[C@@H](NC(=O)c1c2n(c(=O)n1-c1ccc(OCC(F)(F)F)cc1)CCN(C(=O)c1ccc(Br)c(Cl)c1)C2)c1ccc(OC(F)(F)F)cc1F (racemic) [Example 292, 7-(4-bromo-3-chloro-benzoyl)-3-oxo-N-[rac-(1R)-1-[2-fluoro-4-(trifluoromethoxy)phenyl]ethyl]-2-[4-(2,2,2-trifluoroethoxy)phenyl]-6,8-dihydro-5H-imidazo[1,5-a]pyrazine-1-carboxamide] | 500 to 5000 nM |
| CC(NC(=O)c1c2n(c(=O)n1-c1ccc(OCC(F)(F)F)cc1)CCN(C(=O)c1ccc(Br)c(Cl)c1)C2)c1ccc(OC(F)(F)F)cc1F (racemic) [Example 293, 7-(4-bromo-3-chloro-benzoyl)-3-oxo-N-[rac-(1S)-1-[2-fluoro-4-(trifluoromethoxy)phenyl]ethyl]-2-[4-(2,2,2-trifluoroethoxy)phenyl]-6,8-dihydro-5H-imidazo[1,5-a]pyrazine-1-carboxamide] | 500 to 5000 nM |
| C[C@H](NC(=O)c1c2n(c(=O)n1-c1ccc(OCC(F)(F)F)cc1)CCN(C(=O)c1ccc(Br)c(Cl)c1)C2)c1ccc(C#N)cc1F (racemic) [Example 299, 7-(4-bromo-3-chloro-benzoyl)-3-oxo-N-[rac-(1R)-1-(4-cyano-2-fluoro-phenyl)ethyl]-2-[4-(2,2,2-trifluoroethoxy)phenyl]-6,8-dihydro-5H-imidazo[1,5-a]pyrazine-1-carboxamide] | 500 to 5000 nM |
| CC1Cn2c(c(C(=O)NCc3ccccc3)n(-c3ccc(OC4CC4)cc3)c2=O)CN1C(=O)c1ccc(Br)c(Cl)c1 (racemic) [Example 301, rac-(6R)-N-benzyl-7-(4-bromo-3-chloro-benzoyl)-2-[4-(cyclopropoxy)phenyl]-6-methyl-3-oxo-6,8-dihydro-5H-imidazo[1,5-a]pyrazine-1-carboxamide] | 500 to 5000 nM |
| C[C@H]1Cn2c(c(C(=O)NCc3ccccc3)n(-c3ccc(OC4CC4)cc3)c2=O)CN1C(=O)c1ccc(Br)c(Cl)c1 (racemic) [Example 302, rac-(6S)-N-benzyl-7-(4-bromo-3-chloro-benzoyl)-2-[4-(cyclopropoxy)phenyl]-6-methyl-3-oxo-6,8-dihydro-5H-imidazo[1,5-a]pyrazine-1-carboxamide] | 100 to 500 nM |
| C[C@@H](NC(=O)c1c2n(c(=O)n1-c1ccc(OC3CC3)cc1)CCN(C(=O)c1ccc(Br)c(Cl)c1)C2)c1ccc(OC(F)F)cc1F (racemic) [Example 313, 7-(4-bromo-3-chloro-benzoyl)-2-[4-(cyclopropoxy)phenyl]-3-oxo-N-[rac-(1R)-1-[4-(difluoromethoxy)-2-fluoro-phenyl]ethyl]-6,8-dihydro-5H-imidazo[1,5-a]pyrazine-1-carboxamide] | 100 to 500 nM |
| CC(NC(=O)c1c2n(c(=O)n1-c1ccc(OC3CC3)cc1)CCN(C(=O)c1ccc(Br)c(Cl)c1)C2)c1ccc(OC(F)F)cc1F (racemic) [Example 314, 7-(4-bromo-3-chloro-benzoyl)-2-[4-(cyclopropoxy)phenyl]-3-oxo-N-[rac-(1S)-1-[4-(difluoromethoxy)-2-fluoro-phenyl]ethyl]-6,8-dihydro-5H-imidazo[1,5-a]pyrazine-1-carboxamide] | 100 to 500 nM |
| CC1Cn2c(c(C(=O)N[C@H](C)c3ccccc3F)n(-c3ccc(OC4CC4)cc3)c2=O)CN1C(=O)c1ccc(Br)c(Cl)c1 (mixture of isomers) [Example 321, (6RS)-7-(4-bromo-3-chloro-benzoyl)-2-[4-(cyclopropoxy)phenyl]-N-[(1R)-1-(2-fluorophenyl)ethyl]-6-methyl-3-oxo-6,8-dihydro-5H-imidazo[1,5-a]pyrazine-1-carboxamide] | 500 to 5000 nM |
